Measurements published in patent US20110177105A1, “Novel Selective Inhibitors of Ubiquitin Specific Protease 7, the Pharmaceutical Compositions Thereof and Their Therapeutic Applications” (priority 2010, published 2011).

Legend:
UCH-L3 = biological target: T1, UCH-L3 (Homo sapiens, UniProt P15374); assay: UCH-L3 activity assay (Ub-AMC); format: biochemical; settings: 300 nM Ub-AMC, 13 pM enzyme
T1 sequence (P15374 1-230): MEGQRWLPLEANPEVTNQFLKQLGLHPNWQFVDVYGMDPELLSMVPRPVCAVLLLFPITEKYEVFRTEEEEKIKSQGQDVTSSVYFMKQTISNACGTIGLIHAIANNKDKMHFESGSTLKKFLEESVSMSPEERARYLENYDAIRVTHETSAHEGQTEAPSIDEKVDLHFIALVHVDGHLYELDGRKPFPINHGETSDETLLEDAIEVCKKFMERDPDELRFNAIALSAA
Protocol: UCH-L3 was diluted in USP buffer (50 mM Tris HCl; 0.5 mM EDTA; 5 mM DTT; 0.01% Triton X-100; Bovine Serum Albumin 0.05 mg·ml^−1 pH 7.6). Compounds stocks (100 mM) were stored at −20° C. in DMSO. Compounds were tested at different concentrations: from 200 μM to 91 nM.
Reactions were performed as duplicates in Black 384 well plates (small volume microplates; Greiner; 10 μl final reaction volume). The substrate concentration for UCH-L3 was 300 nM Ub-AMC (Boston Biochem). The concentration of the enzyme (UCH-L3) in specificity assays was 13 pM. The concentrations were determined in order to perform specificity assays under initial velocities at fixed substrate concentration. Compounds were pre-incubated with enzymes for 30 minutes at 25° C. Reactions were initiated by addition of substrate to the plates containing the enzymes (+/−compounds) diluted in assay buffer. Reactions were incubated for 60 minutes at 37° C. Reactions were stopped by adding acetic acid (100 mM final). Readings were performed on a Pherastar Fluorescent Reader (BMG). λ Emission 380 nm; λ Excitation=460 nm. Data (mean values+/−standard deviation) were analyzed as % of control (no compound) and plotted as percentage versus the Log of the compound concentration using GraphPad (Prism). Data were fitted to a sigmoidal model (variable slope).

USP7 = USP7 (Homo sapiens, UniProt Q93009); assay: USP7 activity assay (Ub-AMC); format: biochemical; design: Full-length wild-type human USP7 and its catalytic mutant (cysteine 223 replaced by alanine, C223A) were produced as N-terminally His-tagged fusions; His tag (pFastBac-HT) (N); made in house; host or cells: Spodoptera frugiperda Sf9 (or High Five) insect cells, baculovirus; settings: 300 nM Ub-AMC, 100 pM enzyme, 30 min pre-incubation; read-out: USP7 (inhibition of deubiquitinating activity)
Excerpt: The cDNA encoding USP7 was obtained by PCR amplification from placenta mRNA. USP7 cDNA was subcloned by PCR into a baculovirus expression vector (pFastBac-HT; Invitrogen). Full-length wild-type human USP7 and its catalytic mutant (cysteine 223 replaced by alanine, C223A) were produced as N-terminally His-tagged fusions in Spodoptera frugiperda cells (Sf9, Invitrogen), using the Bac-to-Bac Baculovirus system from Invitrogen according to the manufacturer's instructions. pFastBac-HT-B-USP7 was used to transform DH10bac cells (Invitrogen), and blue/white selection was carried out on X-gal/IPTG agar plates. Bacmid DNA was prepared by an alkaline lysis procedure. The integrity of the bacmid minipreps and their orientation were checked by PCR, using generic and specific primers. Sf9 insect cells were cultured in InsectXpress medium (Cambrex) at 27° C. and transfected with the corresponding bacmid, using GeneShuttle 40 (Q-BIOgen). Viruses were recovered in the supernatant 72 h after transfection. Viruses were amplified by infecting insect cells (Sf9 or High Five cells; invitrogen) in 50 ml InsectXpress medium in a 150 cm^2 cell culture flask with 500 μl of the supernatant from transfected Sf9 cells. Following the second round of amplification, infected cells were recovered by rapid SDS lysis, boiled for 5 min at 100° C., sonicated briefly and centrifuged for 20 min at 14,000 g. Expression levels in infected Sf9 cells were compared with those in uninfected cells. Fusion proteins were then allowed to bind to TALON beads (BD Biosciences, TALON metal affinity resin) for 30 min at 4° C. with gentle rocking. Beads were extensively washed (50 mM sodium phosphate buffer pH 7.0, 500 mM NaCl, 10 mM Imidazole, 0.5% Triton X-100 and 10% glycerol) and bound proteins were eluted in wash buffer supplemented with 250 mM Imidazole (Sigma). Eluted fractions were resolved on 4-12% NuPAGE gels (Novex, Invitrogen). Fractions containing high concentrations of purified proteins (purity>95%) were dialyzed (20 mM Tris HCl pH 7.6, 200 mM NaCl, 1 mM DTT, 1 mM EDTA and 10% glycerol) were aliquoted and snap frozen in liquid nitrogen before storage at −80° C.
USP7 was diluted in USP buffer (50 mM Tris HCl; 0.5 mM EDTA; 5 mM DTT; 0.01% Triton X-100; Bovine Serum Albumin 0.05 mg·ml^−1 pH 7.6). Compounds stocks (10 mM) were stored at −20° C. in DMSO. Compounds were tested at different concentrations: from 200 μM to 91 nM.
Reactions were performed as duplicates in Black 384 well plates (small volumes microplates; Greiner; 10 μl final reaction volume). The substrate concentration for USP7 was 300 nM Ub-AMC (Chem. Biol., 2003, 10, p. 837-846) (Boston Biochem). The concentrations of the enzyme (USP7) in specificity assays was 100 pM. The concentrations were determined in order to perform specificity assays under initial velocities at fixed substrate concentration. Compounds were pre-incubated with enzymes for 30 minutes at 25° C. Reactions were initiated by addition of substrate to the plates containing the enzymes (+/−compounds) diluted in assay buffer. Reactions were incubated for 60 minutes at 37° C. Reactions were stopped by adding acetic acid (100 mM final). Readings were performed on a Pherastar Fluorescent Reader (BMG). λ Emission 380 nm; λ Excitation=460 nm. Data (mean values+/−standard deviation) were analyzed as % of control (no compound) and plotted as percentage versus the Log of the compound concentration using GraphPad (Prism). Data were fitted to a sigmoidal model (variable slope).

Sequence of USP7 (Q93009 whole entry, the tested form may be a part): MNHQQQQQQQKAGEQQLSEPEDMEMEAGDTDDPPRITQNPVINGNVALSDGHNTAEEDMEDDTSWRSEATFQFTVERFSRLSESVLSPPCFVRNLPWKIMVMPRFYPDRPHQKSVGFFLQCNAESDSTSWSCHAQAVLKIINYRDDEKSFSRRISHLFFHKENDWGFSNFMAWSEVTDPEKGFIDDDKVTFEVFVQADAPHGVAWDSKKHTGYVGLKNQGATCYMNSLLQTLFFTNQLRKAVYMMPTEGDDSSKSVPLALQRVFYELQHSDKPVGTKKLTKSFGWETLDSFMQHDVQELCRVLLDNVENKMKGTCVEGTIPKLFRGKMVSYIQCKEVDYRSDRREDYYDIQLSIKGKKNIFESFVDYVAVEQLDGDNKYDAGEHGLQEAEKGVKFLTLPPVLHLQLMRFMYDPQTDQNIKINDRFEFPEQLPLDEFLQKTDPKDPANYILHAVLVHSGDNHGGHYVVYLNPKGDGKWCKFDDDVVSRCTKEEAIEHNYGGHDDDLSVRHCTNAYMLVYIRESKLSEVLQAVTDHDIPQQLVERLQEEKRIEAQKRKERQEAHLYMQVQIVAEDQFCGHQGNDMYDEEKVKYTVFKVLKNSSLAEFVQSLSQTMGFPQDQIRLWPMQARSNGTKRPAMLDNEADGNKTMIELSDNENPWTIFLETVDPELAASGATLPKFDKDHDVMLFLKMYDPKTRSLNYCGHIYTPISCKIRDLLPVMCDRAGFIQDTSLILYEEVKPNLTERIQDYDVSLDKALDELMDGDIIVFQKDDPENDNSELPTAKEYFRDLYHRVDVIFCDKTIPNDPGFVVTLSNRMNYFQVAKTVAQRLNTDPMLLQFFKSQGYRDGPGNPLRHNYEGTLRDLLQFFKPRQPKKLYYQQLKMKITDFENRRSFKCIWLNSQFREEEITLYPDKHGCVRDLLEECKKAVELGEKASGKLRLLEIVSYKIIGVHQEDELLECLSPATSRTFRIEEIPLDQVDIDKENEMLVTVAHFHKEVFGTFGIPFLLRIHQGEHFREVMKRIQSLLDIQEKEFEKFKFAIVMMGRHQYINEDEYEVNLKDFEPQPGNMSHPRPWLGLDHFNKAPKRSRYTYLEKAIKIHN

Row | IC50 (UCH-L3) [µM] | IC50 (USP7) [µM] | SMILES
1 | > 200 | 9.1 | Cc1cccc(CN2CCC(CNC(=O)c3ccc4c(Cl)c5c(nc4c3)CCCC5)CC2)c1 [Example 1, 9-Chloro-5,6,7,8-tetrahydro-acridine-3-carboxylic acid [1-(3-methyl-benzyl)-piperidin-4-ylmethyl]-amide]
2 | > 200 | 11.5 | CCN1CCCC1CNC(=O)c1ccc2c(Cl)c3c(nc2c1)CCCC3 (centres unmarked) [Example 2, 9-Chloro-5,6,7,8-tetrahydro-acridine-3-carboxylic acid (1-ethyl-pyrrolidin-2-ylmethyl)-amide]
3 | > 200 | 12.4 | CCCN(CCC)CCNC(=O)c1ccc2c(Cl)c3c(nc2c1)CCCC3 [Example 3, 9-Chloro-5,6,7,8-tetrahydro-acridine-3-carboxylic acid (2-dipropylamino-ethyl)-amide]
4 | > 200 | 23.5 | CCCCN(CC)CCNC(=O)c1ccc2c(Cl)c3c(nc2c1)CCCC3 [Example 4, 9-Chloro-5,6,7,8-tetrahydro-acridine-3-carboxylic acid [2-(butyl-ethyl-amino)-ethyl]-amide]
5 | > 200 | 22.6 | CCN(CCCNC(=O)c1ccc2c(Cl)c3c(nc2c1)CCCC3)Cc1ccccc1 [Example 5, 9-Chloro-5,6,7,8-tetrahydro-acridine-3-carboxylic acid [3-(benzyl-ethyl-amino)-propyl]-amide]
6 | > 200 | 23.8 | CCCN(CCC)CCCNC(=O)c1ccc2c(Cl)c3c(nc2c1)CCCC3 [Example 6, 9-Chloro-5,6,7,8-tetrahydro-acridine-3-carboxylic acid (3-dipropylamino-propyl)-amide]
7 | > 200 | 25.6 | O=C(NCCCN1CCCC1)c1ccc2c(Cl)c3c(nc2c1)CCCC3 [Example 8, 9-Chloro-5,6,7,8-tetrahydro-acridine-3-carboxylic acid (3-pyrrolidin-1-yl-propyl)-amide]
8 | > 200 | 28.7 | CC1CCCC(C)N1CCCNC(=O)c1ccc2c(Cl)c3c(nc2c1)CCCC3 (centres unmarked) [Example 9, 9-Chloro-5,6,7,8-tetrahydro-acridine-3-carboxylic acid [3-(2,6-dimethyl-piperidin-1-yl)-propyl]-amide]
9 | > 200 | 29.2 | CCN(CC)CCCNC(=O)c1ccc2c(Cl)c3c(nc2c1)CCCC3 [Example 10, 9-Chloro-5,6,7,8-tetrahydro-acridine-3-carboxylic acid (3-diethylamino-propyl)-amide]
10 | > 200 | 29.8 | CN(C)CCNC(=O)c1ccc2c(Cl)c3c(nc2c1)CCCC3 [Example 11, 9-Chloro-5,6,7,8-tetrahydro-acridine-3-carboxylic acid (2-dimethylamino-ethyl)-amide]
11 | > 200 | 37.9 | O=C(c1ccc2c(Cl)c3c(nc2c1)CCCC3)N1CCCCCC1 [Example 12, Azepan-1-yl-(9-chloro-5,6,7,8-tetrahydro-acridin-3-yl)-methanone]
12 | > 200 | 37.9 | CCCN1CCN(CCCNC(=O)c2ccc3c(Cl)c4c(nc3c2)CCCC4)CC1 [Example 13, 9-Chloro-5,6,7,8-tetrahydro-acridine-3-carboxylic acid [3-(4-propyl-piperazin-1-yl)-propyl]-amide]
13 | > 200 | 28.1 | CN(CCCNC(=O)c1ccc2c(Cl)c3c(nc2c1)CCCC3)Cc1ccccc1 [Example 14, 9-Chloro-5,6,7,8-tetrahydro-acridine-3-carboxylic acid [3-(benzyl-methyl-amino)-propyl]-amide]
14 | > 200 | 43 | CN1CCN(CCCNC(=O)c2ccc3c(Cl)c4c(nc3c2)CCCC4)CC1 [Example 15, 9-Chloro-5,6,7,8-tetrahydro-acridine-3-carboxylic acid [3-(4-methyl-piperazin-1-yl)-propyl]-amide]
15 | > 200 | 46 | O=C(c1ccc2c(Cl)c3c(nc2c1)CCCC3)N1CCC(N2CCCCC2)CC1 [Example 16, [1,4′]Bipiperidinyl-1′-yl-(9-chloro-5,6,7,8-tetrahydro-acridin-3-yl)-methanone]

Row | SMILES | IC50 (UCH-L3) [µM] | IC50 (USP7) [µM]
16 | CCN(CC)CCNC(=O)c1ccc2c(Cl)c3c(nc2c1)CCCC3 [Example 7, 9-Chloro-5,6,7,8-tetrahydro-acridine-3-carboxylic acid (2-diethylamino-ethyl)-amide] | > 200 | 24.9
